Entries after “also recorded” stand apart in the source; their conditions may differ.
Experiments:
[1] = tested on: T1, wild-type human NPC1; assay: Cross-linking of P-X to NPC1 in intact HEK-293S GnTI- cells overexpressing NPC1; format: cell-based; settings: for inhibition of P-X cross-linking to WT NPC1 in intact cells: 0.3 μM P-X and 3 μM competitor, 1 h at 37 °C
T1 construct: expressed in transfected cells; host or cells: HEK-293S GnTI- cells (ATCC, CRL-3022), PEI transfection
From the text: pNPC1 encoding wild-type human NPC1 (amino acids 1–1278) followed sequentially by three tandem copies of the Flag epitope tag ([…]) was constructed into pcDNA3.1. Expression is achieved with the cytomegalovirus (CMV) promoter. Point mutations were introduced into the coding region of pNPC1 by site-directed mutagenesis using the QuikChange II XL Site-Directed Mutagenesis Kit (Agilent Technologies, Santa Clara, CA) and primers which are indicated in Supplementary Table 2. The coding region of each plasmid was sequenced to ensure integrity of the construct.
For cross-linking of P-X to NPC1 and mutants in intact cells, the mammalian HEK-293S GnTI^- cells (ATCC, CRL-3022) overexpressing NPC1 and mutants were set up in 500 mL of freestyle medium with 2% FCS at a density of 2 × 10^6 cells per ml. The cells were transfected with 0.5 mg of the indicated plasmid using PEI (Polysciences) as the transfection agent. After 48 h, cell culture was aliquoted to 10 cm dishes. Each dish received a direct addition of DMSO (final concentration, 0.2%) containing 0.3 μM P-X and 3 μM of various competitor compounds as described in the figure legends. After incubation for 1 h at 37 °C in the dark and without a change of media, the cells were irradiated for 10 min at room temperature under 306-nm UV light (Atlanta Light Bulb Co.) in a UV Stratalinker 2400 apparatus (Stratagene). Cells were subjected to centrifugation at 4000 g for 5 min. The pellet was washed once with PBS and then solubilized with 1 mL of buffer containing 50 mM Hepes pH 7.5, 150 mM NaCl, 1%(wt/vol) n-Dodecyl-β-D-maltopyranoside (DDM, Anatrace). Each solubilized lysate was incubated at room temperature for 1 h, and clarified by centrifugation at 15000 g for 1 min. The supernatant was then transferred to a fresh tube and incubated with anti-FLAG M2 magnetic beads for 1 h. After which the beads were applied to a magnet, washed three times with 1 mL of wash buffer containing 50 mM Hepes pH 7.5, 150 mM NaCl, 0.02% (wt/vol) DDM, and eluted with 100 μL of wash buffer containing 15 μg of 3x FLAG peptide. The purified protein was then tagged with Alexa Fluor 532 using click chemistry as described above. An aliquot of each sample was subjected to 8% SDS/PAGE, and fluorescent-labeled proteins were visualized by in-gel fluorescence as described above. After scanning the gel, the proteins were transferred to nitrocellulose and blotted with mouse monoclonal anti-Flag.

[2] = tested on: T2, human NPC1; assay: P-X cross-linking to purified NPC1; format: binding; settings: for competition with cross-linking of P-X to purified NPC1: 0.3 μM P-X, amphipol-reconstituted NPC1 without detergent, in-gel fluorescence
T2 construct: Strep-tag; made in house; host or cells: HEK-293S GnTI- cells (baculovirus-mediated transduction)
Protocol: To determine the binding site for itraconazole on NPC1, we expressed and purified the NPC1 protein using n-dodecyl β-D-maltoside (DDM) as the detergent. The protein was then incorporated into amphipol A8-35 and the detergent was removed with bio-beads and further separated by gel filtration in phosphate buffered saline (PBS).
For Cross-Linking of P-X to purified NPC1 protein, each reaction contained 0.5 μg of indicated protein, 0.3 μM P-X, and various amounts of itraconazole in a final volume of 100 μL of buffer containing 50 mM Hepes pH7.5 and 150 mM NaCl with or without 0.1% Digitonin (Calbiochem). After incubation for 1 h at 37 °C, the mixture was subjected to UV cross-linking for 10 min and then tagged with Alexa Fluor 532 by means of copper-catalyzed azide-alkyne cycloaddition (click chemistry)[22],[41]. The reactions were carried out by mixing an aliquot of each mixture (50 μL), in a final volume of 58.5 μL, with 3 μL of 1.7 mM Tris[(1-benzyl-1H-1,2,3-triazol-4-yl) methyl] amine (TBTA), 2 μL of 50 mM CuSO4, 1 μL of 50 mM Tris(2-carboxyethyl) phosphine (TCEP), 1.5 μL 10% SDS and 1 μL of 1.25 mM Alexa Fluor 532 azide. The mixture was incubated at room temperature for 1 h.
To visualize the fluorescent-labeled proteins by in-gel fluorescence, 20 μL. aliquots of each sample were mixed with 4x loading dye and subjected to 8% SDS/PAGE, after which the gels were scanned with a Typhoon image scanner (GE Healthcare; filter setting: excitation, […]; emission, 555 nm; high sensitivity). After scanning the gel, the proteins were transferred to nitrocellulose and blotted with rabbit monoclonal anti-NPC1 as indicated in the figure legends.
Human NPC1 protein was expressed and purified as previously described, except for using Strep-tag instead of His-tag. Briefly, the protein was expressed using baculovirus-mediated transduction of mammalian HEK-293S GnTI^− cells (ATCC, CRL-3022). At 48 h post infection, the cells were disrupted by sonication in buffer B, containing 20 mM Hepes, pH7.5, 150 mM NaCl with 1 mM PMSF and 5 μg/mL leupeptin. After low speed centrifugation, the resulting supernatant was incubated in buffer B with 1% (w/v) DDM for 1 h at 4 °C. The lysate was centrifuged again, and the supernatant was loaded onto a Strep-Tactin affinity column (IBA). After washing twice, the protein was eluted in 20 mM Hepes, pH7.5, 150 mM NaCl, 2.5 mM desthiobiotin, 0.02% DDM and concentrated. The concentrated protein was further purified by Superdex 200 increase column (GE Healthcare) in buffer B with 0.02% DDM. The peak fractions were mixed with amphipol A8-35 (Anatrace) at 1:3 (w/w) for 4 h. Detergent was removed with Bio-Beads (Bio-Rad) overnight and further separation on a Superdex 200 increase column in PBS (Sigma-Aldrich). […]

SMILES | inhibition of P-X cross-linking to WT NPC1 in intact cells [1] | competition with cross-linking of P-X to purified NPC1 [2] | also measured
CC(=O)N1CCN(c2ccc(OCC3COC(Cn4ccnc4)(c4ccc(Cl)cc4Cl)O3)cc2)CC1 (centres unmarked) [Ketoconazole, ketoconazole] | could not inhibit |  | inhibition of P-X cross-linking to WT NPC1 in intact cells ([1]; listed as ketoconazole): does not
CCC(C)n1ncn(-c2ccc(N3CCN(c4ccc(OCC5COC(Cn6cncn6)(c6ccc(Cl)cc6Cl)O5)cc4)CC3)c(Br)c2)c1=O (centres unmarked) [I-Br] |  | binds to NPC1 in a similar manner to the itraconazole mixture; also recorded: competes | 
C#CCOc1ccc(C(=O)c2ccc(C(=O)OC(C)C(CC)n3ncn(-c4ccc(N5CCN(c6ccc(OCC7COC(Cn8cncn8)(c8ccc(F)cc8F)O7)cc6)CC5)cc4)c3=O)cc2)cc1 (centres unmarked) [P-X] |  |  | cross-linking of P-X to WT NPC1 in intact cells ([1]; 0.3 μM P-X): can easily cross-link; cross-linking of P-X to purified NPC1 ([2]; amphipol-reconstituted NPC1 in PBS without detergent): can cross-link; cross-linking of P-X to purified NPC1 ([2]; protein solubilized in digitonin): not when the protein was solubilized in digitonin
CCC(C)n1ncn(-c2ccc(N3CCN(c4ccc(OCC5COC(Cn6cncn6)(c6ccc(Cl)cc6Cl)O5)cc4)CC3)cc2)c1=O (centres unmarked) [Itraconazole mixture, itraconazole] | inhibits this reaction | competed | 
